According to BindingDB's records for doi:10.1111/j.1747-0285.2009.00842.x (Universita Degli Studi Di Firenze, 2009):

Columns and labels:
Carbonic anhydrase 7 = Carbonic anhydrase 7 (Homo sapiens, UniProt P43166); assay: Inhibition Assay; settings: pH 7.4; 25 °C
Carbonic anhydrase 2 = Carbonic anhydrase 2 (Homo sapiens, UniProt P00918); assay: Inhibition Assay; settings: pH 7.4; 25 °C

Chain of Carbonic anhydrase 7 (P43166 whole entry): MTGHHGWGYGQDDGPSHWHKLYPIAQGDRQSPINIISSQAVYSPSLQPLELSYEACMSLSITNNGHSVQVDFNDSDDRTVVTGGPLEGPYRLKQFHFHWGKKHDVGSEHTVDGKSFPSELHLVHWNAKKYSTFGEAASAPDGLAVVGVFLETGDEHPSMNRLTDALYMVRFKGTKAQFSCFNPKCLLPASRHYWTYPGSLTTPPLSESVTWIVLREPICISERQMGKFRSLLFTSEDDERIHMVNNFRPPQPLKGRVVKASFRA

Row | Compound | Ki (Carbonic anhydrase 7) | Ki (Carbonic anhydrase 2)
1 | CN(C)c1ccc(/N=N/c2ccc(S(N)(=O)=O)cc2)cc1 | 30 nM | –
2 | NS(=O)(=O)c1ccc(Cl)cc1 [p-Halide-sulfanilamide derivative, 2] | – | 17.5 nM
3 | NS(=O)(=O)c1ccc(Br)cc1 [p-Halide-sulfanilamide derivative, 2a] | 68 nM | –
4 | NS(=O)(=O)c1ccc(I)cc1 [p-Halide-sulfanilamide derivative, 3] | – | 81 nM
5 | NS(=O)(=O)c1ccc(O)cc1 [p-Hydroxy-benzene derivative, 3a] | 88 nM | –
6 | COc1ccc(/N=N/c2ccc(S(=O)(=O)N(C)C)cc2)cc1 [p-Phenyldiazenyl derivative, 6] | 4200 nM | 863 nM
7 | CN(C)S(=O)(=O)c1ccc(N=Nc2ccc(O)cc2)cc1 [p-Phenyldiazenyl derivative, 7] | 752 nM | 312 nM
8 | CNS(=O)(=O)c1ccc(N=Nc2ccc(O)cc2)cc1 [p-Phenyldiazenyl derivative, 8] | 706 nM | 277 nM
